According to US11884708B2, “Stapled peptide inhibitors of nemo as potential anti-inflammatory and anti-cancer drugs” (INSTITUT PASTEUR, priority 2015, dated 2024):
Where a SMILES comes first, the peptide text is derived from it. Bridges are numbered along the chain shown (N, C = ends). [ ]: non-standard residue; d: D form. The star is where a group is joined. BODIPYFLEthylmaleimide = Cc1cc(C)n2c1C=C1C=CC(CCC(=O)NCCN3C(=O)CC(*)C3=O)=[N+]1[B-]2(F)F; R8 = C=CCCCCCC[C@@](C)(N)C(=O)O; S5 = C=CCCC[C@](C)(N)C(=O)O

Assays:
[1] = Temperature-induced denaturation followed by CD; format: physicochemical; settings: 30 μM or 300 μM, ΔCp ≈ 0; for Tm: thermal denaturation by CD; for ΔH: van't Hoff enthalpy change at Tm
Procedure: Temperature-induced denaturation experiments were performed by measuring the ellipticity at 222 nm from 1° C. to 95° C. in 1° C. steps, at a rate of 1° C./min, with a 2 nm bandwidth. Thermodynamic parameters including the melting temperature (Tm) and the van't Hoff enthalpy change at the melting temperature (ΔHm) were determined by fitting the denaturation curves with the Gibbs-Helmholtz equation as described elsewhere, [10]. The heat capacity change (ΔCp) was assumed to be 0 as judged by ΔHm which yielded similar values within 10% at two independent peptide concentrations (30 and 300 μM). The ellipticity was converted to differential extinction coefficient Δε (M^−1·cm^−1) per residue taking into account the peptide concentration determined by amino acid analysis.
Thermal stability of the peptides was also investigated by performing thermal denaturation profiles followed by CD (FIGS. 1 C and D and Table III). […] Indeed, the helicity of UBI-Aib (49%) is only 1.16-fold increased at 1° C. compared to UBI (42%), while its melting temperature (Tm=−8° C.) is 2.25 times higher than that of UBI (Tm=−18° C.).

CC2-LZ domain of NEMO = CC2-LZ domain of NEMO (Mus musculus, UniProt O88522); experiment: Fluorescence anisotropy/polarization binding assay; settings: for Binding affinity (FP) at 10 μM: fixed peptide concentration 10 μM
[2] = CD spectroscopy, α-helical content; format: physicochemical; settings: 50 μM peptide, phosphate buffer pH 7.0, UBI in TFE taken as 100%
70Z3-C3 cells = experiment: Cellular uptake of BODIPY-labeled peptides by FACS; format: cell-based; settings: for reduction of the uptake of A-UBI-SAHND306-Q313 by endocytosis inhibitor: 30 min pre-incubation, nystatin 50 μg/ml, chlorpromazine 10 μg/ml, ethylisopropylamiloride 100 μM
Procedure: 2.2×10^5 cells in 100 μl of 70Z3-C3 were incubated with either 10 μM or with various doses of 10 μM, 5 μM and 1 μM of labeled-peptides at 37° C., 5% CO2. Similarly to fluorescence microscopy experiments, cells alone or incubated with BODIPY®-labeled BSA (ref) or BODIPY®-UBI devoid of the antennapedia cell penetrating sequence were used as negative control, whereas cells with BA-UBI [1] at 10 μM were used as positive control. After 2 h incubation, cells were washed 4 times with PBS at room temperature, and finally diluted 1:3 in PBS before subjected to FACS analysis. Along with the BODIPY® fluorophore the fluorescence intensity was recorded at 525±25 nm using the Gallios Flow cytometer (Beckman Coulter) to analyse each cells sample. Each internalization peptide was assessed by gating a population of 15,000 events and the data were analysed using Kaluza software version 1.2.
For determination of cellular uptake by flow cytometry, the BA-UBI-SAHND306-Q313 stapled peptide was first incubated with 2.2×10^5 70Z3-C3 cells in […] either at 4° C. or 37° C. for 2 h. Bodipy-labeled BSA, bodipy alone and bodipy-UBI were used as negative controls to verify the washing quality and efficient removal of any non-specific binding at the cell surface before FACS analysis. […] After 2 h of incubation, cells were washed four times with PBS at room temperature and diluted at 1:3 in PBS for FACS analysis. Samples were analyzed as previously described in the European patent (No: 15307137.8).

Chain of CC2-LZ domain of NEMO (O88522 242-343 limits assumed): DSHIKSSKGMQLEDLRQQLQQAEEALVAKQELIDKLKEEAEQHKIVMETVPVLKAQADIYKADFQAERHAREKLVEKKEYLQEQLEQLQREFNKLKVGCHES

## CC[C@H](C)[C@@H]1NC(=O)[C@H](CC(=O)O)NC(=O)[C@H](C)NC(=O)[C@H](CCC(N)=O)NC(=O)[C@](C)(NC(=O)[C@H](CCCCN)NC(=O)[C@H](CC(C)C)NC(=O)[C@H](CSC2CC(=O)N(CCNC(=O)CCC3=[N+]4C(=Cc5c(C)cc(C)n5[B-]4(F)F)C=C3)C2=O)NC(C)=O)CCCCCC/C=C\CCC[C@@](C)(C(=O)N[C@@H](CCCNC(=N)N)C(=O)N[C@@H](Cc2ccccc2)C(=O)N[C@@H](CCC(N)=O)C(=O)N[C@@H](C)C(=O)N[C@@H](CCC(=O)O)C(=O)N[C@@H](CCCNC(=N)N)C(=O)N[C@@H](Cc2c[nH]cn2)C(=O)N[C@@H](C)C(=O)N[C@@H](CCCNC(=N)N)C(=O)N[C@@H](CCC(=O)O)C(=O)N[C@@H](CCCCN)C(N)=O)NC(=O)[C@H](CCCCN)NC(=O)[C@H](Cc2ccc(O)cc2)NC1=O (stereo partly shown) [UBI-SAHN A303-A310 (A)] (Ac-C(BODIPYFLEthylmaleimide)LK[R8]QADIYK[S5]RFQAERHAREK-NH2; staple (Z) 4-11; N-terminus and C-terminus assumed)
[1]
  ΔS: A: −21 - cal. mol^−1.K^−1
  Tm: A: 5 - B: C°
  ΔH: A: −5950 - (cal. mol)^−1
CC2-LZ domain of NEMO
  Binding affinity (FP) at 10 μM: weak binding
[2]
  α-helical content at 1° C.: A: 63% -
[2]; listed as UBI-SAHNA303-A310 (A)
  α-helical content at 1° C.: 63%
[2]; listed as UBI-SAHNA310-A310 (A)
  α-helical content at 1° C.: 63%

## CC[C@H](C)[C@@H]1NC(=O)[C@H](CC(=O)O)NC(=O)[C@H](C)NC(=O)[C@H](CCC(N)=O)NC(=O)[C@](C)(NC(=O)[C@H](CCCCN)NC(=O)[C@H](CC(C)C)NC(=O)[C@H](CSC2CC(=O)N(CCNC(=O)CCC3=[N+]4C(=Cc5c(C)cc(C)n5[B-]4(F)F)C=C3)C2=O)NC(C)=O)CCCCCC/C=C/CCC[C@@](C)(C(=O)N[C@@H](CCCNC(=N)N)C(=O)N[C@@H](Cc2ccccc2)C(=O)N[C@@H](CCC(N)=O)C(=O)N[C@@H](C)C(=O)N[C@@H](CCC(=O)O)C(=O)N[C@@H](CCCNC(=N)N)C(=O)N[C@@H](Cc2c[nH]cn2)C(=O)N[C@@H](C)C(=O)N[C@@H](CCCNC(=N)N)C(=O)N[C@@H](CCC(=O)O)C(=O)N[C@@H](CCCCN)C(N)=O)NC(=O)[C@H](CCCCN)NC(=O)[C@H](Cc2ccc(O)cc2)NC1=O (stereo partly shown) [UBI-SAHN A303-A310 (B)] (Ac-C(BODIPYFLEthylmaleimide)LK[R8]QADIYK[S5]RFQAERHAREK-NH2; staple (E) 4-11; N-terminus and C-terminus assumed)
[1]
  ΔS: B: −21 cal. mol^−1.K^−1
  Tm: 33 ± 0.3 C°
  ΔH: B: −6510 (cal. mol)^−1
CC2-LZ domain of NEMO
  Binding affinity (FP) at 10 μM: weak binding
[2]
  α-helical content at 1° C.: B: 80%
[2]; listed as UBI-SAHNA303-A310 (B)
  α-helical content at 1° C.: 80%

## CC[C@H](C)[C@@H]1NC(=O)[C@](C)(NC(=O)[C@H](C)NC(=O)[C@H](CCC(N)=O)NC(=O)[C@H](C)NC(=O)[C@H](CCCCN)NC(=O)[C@H](CC(C)C)NC(=O)[C@H](CSC2CC(=O)N(CCNC(=O)CCC3=[N+]4C(=Cc5c(C)cc(C)n5[B-]4(F)F)C=C3)C2=O)NC(C)=O)CCCCCCC=CCCC[C@@](C)(C(=O)N[C@@H](C)C(=O)N[C@@H](CCC(=O)OC)C(=O)N[C@@H](CCCNC(=N)N)C(=O)N[C@@H](Cc2c[nH]cn2)C(=O)N[C@@H](C)C(=O)N[C@@H](CCCNC(=N)N)C(=O)N[C@@H](CCC(=O)OC)C(=O)N[C@@H](CCCCN)C(N)=O)NC(=O)[C@H](Cc2ccccc2)NC(=O)[C@H](CCCNC(=N)N)NC(=O)[C@H](C)NC(=O)[C@H](CCCCN)NC(=O)[C@H](Cc2ccc(O)cc2)NC1=O (stereo partly shown) [UBI-SAHN D306-Q313 OMe, LKAQAX2IYKARFX5AX7RHARX9K] (Ac-C(BODIPYFLEthylmaleimide)LKAQA[R8]IYKARF[S5]AE(OMe)RHARE(OMe)K-NH2; staple 7-14)
70Z3-C3 cells
  cell internalization by FACS, in words: became cell permeable
CC2-LZ domain of NEMO; fixed peptide concentration 0.1 μM, read-out: Binding affinity (FP) at 0.1 μM
  Kd: 24 ± 5 µM

## CC[C@H](C)[C@@H]1NC(=O)[C@](C)(NC(=O)[C@H](C)NC(=O)[C@H](CCC(N)=O)NC(=O)[C@H](C)NC(=O)[C@H](CCCCN)NC(=O)[C@H](CC(C)C)NC(=O)[C@H](CSC2CC(=O)N(CCNC(=O)CCC3=[N+]4C(=Cc5c(C)cc(C)n5[B-]4(F)F)C=C3)C2=O)NC(C)=O)CCCCCCC=CCCC[C@@](C)(C(=O)N[C@@H](C)C(=O)N[C@@H](CCC(N)=O)C(=O)N[C@@H](CCCNC(=N)N)C(=O)N[C@@H](Cc2c[nH]cn2)C(=O)N[C@@H](C)C(=O)N[C@@H](CCCNC(=N)N)C(=O)N[C@@H](CCC(N)=O)C(=O)N[C@@H](CCCCN)C(N)=O)NC(=O)[C@H](Cc2ccccc2)NC(=O)[C@H](CCCNC(=N)N)NC(=O)[C@H](C)NC(=O)[C@H](CCCCN)NC(=O)[C@H](Cc2ccc(O)cc2)NC1=O (stereo partly shown) [UBI-SAHN D306-Q313 Q/Q] (Ac-C(BODIPYFLEthylmaleimide)LKAQA[R8]IYKARF[S5]AQRHARQK-NH2; staple 7-14)
70Z3-C3 cells
  cell internalization by FACS, in words: became cell permeable

## CN(C)CCCN1c2ccccc2Sc2ccc(Cl)cc21 [chlorpromazine, reference compound]
70Z3-C3 cells; read-out: reduction of the uptake of A-UBI-SAHND306-Q313 by endocytosis inhibitor
  inhibition at 10 µg/mL: 59%

## CCN(c1nc(N)c(C(=O)N=C(N)N)nc1Cl)C(C)C [ethylisopropylamiloride, 5-(N-ethyl-N-isopropyl) amiloride, reference compound]
70Z3-C3 cells
  reduction of the uptake of A-UBI-SAHND306-Q313 by endocytosis inhibitor: 26%

## C[C@@H]1[C@H](O)[C@@H](C)/C=C/C=C/CC/C=C/C=C/C=C/C=C/C(O[C@H]2O[C@H](C)[C@@H](O)[C@H](N)[C@@H]2O)CC2O[C@](O)(CC(O)C(O)CCC(O)CC(O)CC(O)CC(=O)O[C@H]1C)CC(O)C2C(=O)O (stereo partly shown) [nystatin, reference compound]
70Z3-C3 cells
  reduction of the uptake of A-UBI-SAHND306-Q313 by endocytosis inhibitor: 50%
